ChEMBL document CHEMBL1800013, “Small molecule inhibitors of SHP2 tyrosine phosphatase discovered by virtual screening” (Bioorg Med Chem Lett, 2011)
Calls of active or inactive are those of the source. The rule behind the calls is not given here.

Key:
[1] = biological target: Receptor-type tyrosine-protein phosphatase F (Homo sapiens, UniProt P10586); test: Inhibition of LAR
[2] = biological target: T1, Tyrosine-protein phosphatase non-receptor type 22 (Homo sapiens) (UniProt Q9Y2R2); test: Inhibition of LYP at 100 uM
T1 sequence (whole entry): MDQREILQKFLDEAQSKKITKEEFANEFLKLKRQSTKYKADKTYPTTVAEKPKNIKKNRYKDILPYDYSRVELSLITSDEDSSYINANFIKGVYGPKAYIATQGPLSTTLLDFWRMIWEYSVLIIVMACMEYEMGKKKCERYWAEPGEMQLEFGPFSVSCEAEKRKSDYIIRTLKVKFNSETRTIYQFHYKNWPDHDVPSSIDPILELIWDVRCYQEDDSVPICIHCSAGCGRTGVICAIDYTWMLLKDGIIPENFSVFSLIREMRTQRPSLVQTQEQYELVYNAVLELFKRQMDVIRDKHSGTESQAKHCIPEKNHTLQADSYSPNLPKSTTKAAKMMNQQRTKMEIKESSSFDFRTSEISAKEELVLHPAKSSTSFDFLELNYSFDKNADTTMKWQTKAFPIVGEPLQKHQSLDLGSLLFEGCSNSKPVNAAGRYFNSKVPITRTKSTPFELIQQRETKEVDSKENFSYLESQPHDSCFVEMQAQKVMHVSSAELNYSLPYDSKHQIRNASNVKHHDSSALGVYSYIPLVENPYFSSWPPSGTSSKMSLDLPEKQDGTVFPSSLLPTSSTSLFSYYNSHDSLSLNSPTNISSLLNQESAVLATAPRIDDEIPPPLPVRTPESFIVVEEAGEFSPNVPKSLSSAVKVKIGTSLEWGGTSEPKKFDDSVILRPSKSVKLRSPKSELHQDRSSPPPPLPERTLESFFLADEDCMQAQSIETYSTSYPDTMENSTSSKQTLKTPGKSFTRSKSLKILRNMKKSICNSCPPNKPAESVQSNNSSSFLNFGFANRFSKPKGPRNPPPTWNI

[3] = biological target: Tyrosine-protein phosphatase non-receptor type 6 (Homo sapiens, UniProt P29350); test: Inhibition of SHP1
Tyrosine-protein phosphatase non-receptor type 6, sequence (P29350 whole entry): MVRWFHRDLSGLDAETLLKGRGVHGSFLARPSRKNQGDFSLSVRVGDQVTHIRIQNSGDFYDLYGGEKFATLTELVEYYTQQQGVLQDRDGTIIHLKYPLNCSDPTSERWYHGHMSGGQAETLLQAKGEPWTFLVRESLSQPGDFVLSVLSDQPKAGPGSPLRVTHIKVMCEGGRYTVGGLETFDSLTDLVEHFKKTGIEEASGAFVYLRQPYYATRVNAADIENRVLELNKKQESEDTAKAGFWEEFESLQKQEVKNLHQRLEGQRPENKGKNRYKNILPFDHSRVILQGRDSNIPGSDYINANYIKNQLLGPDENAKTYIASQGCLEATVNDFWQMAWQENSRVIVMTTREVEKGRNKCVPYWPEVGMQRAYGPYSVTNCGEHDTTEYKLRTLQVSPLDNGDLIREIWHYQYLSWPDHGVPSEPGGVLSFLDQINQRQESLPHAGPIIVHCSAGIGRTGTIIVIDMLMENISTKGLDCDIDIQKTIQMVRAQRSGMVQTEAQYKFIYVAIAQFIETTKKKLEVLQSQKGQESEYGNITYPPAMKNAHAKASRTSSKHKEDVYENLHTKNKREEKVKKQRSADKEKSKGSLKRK

[4] = biological target: T2, Receptor-type tyrosine-protein phosphatase C (Homo sapiens, UniProt P08575); test: Inhibition of CD45
T2 sequence (P08575 whole entry): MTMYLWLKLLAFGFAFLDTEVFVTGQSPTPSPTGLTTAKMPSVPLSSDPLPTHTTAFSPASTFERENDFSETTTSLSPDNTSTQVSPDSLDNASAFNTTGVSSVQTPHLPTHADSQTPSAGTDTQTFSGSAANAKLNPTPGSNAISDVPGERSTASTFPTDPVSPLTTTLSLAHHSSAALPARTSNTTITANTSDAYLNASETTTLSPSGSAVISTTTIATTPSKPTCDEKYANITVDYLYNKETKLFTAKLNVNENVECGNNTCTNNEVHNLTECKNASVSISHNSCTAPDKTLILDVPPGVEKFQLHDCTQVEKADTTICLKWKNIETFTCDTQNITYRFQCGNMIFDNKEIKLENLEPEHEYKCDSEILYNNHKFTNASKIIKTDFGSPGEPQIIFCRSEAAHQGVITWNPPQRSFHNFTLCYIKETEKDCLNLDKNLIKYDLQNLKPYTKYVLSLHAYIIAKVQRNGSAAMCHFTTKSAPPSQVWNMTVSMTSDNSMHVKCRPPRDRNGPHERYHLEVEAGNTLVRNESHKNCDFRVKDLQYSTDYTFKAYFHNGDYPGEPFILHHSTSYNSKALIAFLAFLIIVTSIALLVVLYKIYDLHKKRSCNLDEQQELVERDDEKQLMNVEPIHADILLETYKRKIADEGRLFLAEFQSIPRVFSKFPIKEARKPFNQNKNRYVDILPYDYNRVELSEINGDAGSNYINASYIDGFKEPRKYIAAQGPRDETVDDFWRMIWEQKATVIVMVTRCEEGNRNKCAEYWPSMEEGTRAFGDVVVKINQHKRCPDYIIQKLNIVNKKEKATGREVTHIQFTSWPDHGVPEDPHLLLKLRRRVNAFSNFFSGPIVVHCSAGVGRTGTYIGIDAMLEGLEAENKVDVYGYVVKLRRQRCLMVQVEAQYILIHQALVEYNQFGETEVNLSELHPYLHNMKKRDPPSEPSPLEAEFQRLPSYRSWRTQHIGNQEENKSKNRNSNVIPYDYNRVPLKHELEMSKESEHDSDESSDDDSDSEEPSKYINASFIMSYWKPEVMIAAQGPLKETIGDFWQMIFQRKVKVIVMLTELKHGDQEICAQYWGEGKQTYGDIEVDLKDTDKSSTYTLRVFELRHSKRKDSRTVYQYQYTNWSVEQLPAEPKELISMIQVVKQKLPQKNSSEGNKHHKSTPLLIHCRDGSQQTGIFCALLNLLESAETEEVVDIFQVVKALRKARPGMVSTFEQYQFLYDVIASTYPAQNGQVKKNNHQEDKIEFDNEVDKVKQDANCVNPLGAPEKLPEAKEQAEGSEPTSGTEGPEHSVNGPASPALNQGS

[5] = biological target: T3, Low molecular weight phosphotyrosine protein phosphatase (Homo sapiens, UniProt P24666); test: Inhibition of LMW-PTP
T3 sequence (P24666 whole entry): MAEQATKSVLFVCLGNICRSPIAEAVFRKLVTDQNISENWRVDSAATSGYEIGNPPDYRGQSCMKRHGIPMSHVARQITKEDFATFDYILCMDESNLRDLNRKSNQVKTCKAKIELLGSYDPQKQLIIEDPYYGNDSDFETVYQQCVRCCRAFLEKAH

[6] = biological target: T4, Tyrosine-protein phosphatase non-receptor type 11 (Homo sapiens) (UniProt Q06124); test: Inhibition of SHP2 catalytic domain assessed as inhibition of pNPP to p-nitrophenol conversion at 50 uM after 5 mins by spectrophotometry
T4 sequence (whole entry): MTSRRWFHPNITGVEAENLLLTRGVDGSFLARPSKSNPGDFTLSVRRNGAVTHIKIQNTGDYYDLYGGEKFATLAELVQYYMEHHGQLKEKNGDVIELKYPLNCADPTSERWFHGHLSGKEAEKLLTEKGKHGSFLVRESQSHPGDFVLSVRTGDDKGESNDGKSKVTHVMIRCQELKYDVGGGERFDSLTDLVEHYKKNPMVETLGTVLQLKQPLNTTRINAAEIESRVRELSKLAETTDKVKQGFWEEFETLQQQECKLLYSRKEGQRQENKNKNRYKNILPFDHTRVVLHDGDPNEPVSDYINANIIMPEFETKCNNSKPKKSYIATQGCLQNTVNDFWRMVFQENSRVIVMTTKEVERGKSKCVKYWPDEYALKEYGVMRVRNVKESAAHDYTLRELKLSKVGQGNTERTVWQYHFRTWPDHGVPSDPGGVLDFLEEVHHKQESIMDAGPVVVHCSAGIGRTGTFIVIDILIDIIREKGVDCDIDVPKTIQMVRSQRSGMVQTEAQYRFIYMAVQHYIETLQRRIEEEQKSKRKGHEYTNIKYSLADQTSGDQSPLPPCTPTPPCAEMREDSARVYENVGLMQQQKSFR

Receptor-type tyrosine-protein phosphatase F, sequence (P10586 whole entry): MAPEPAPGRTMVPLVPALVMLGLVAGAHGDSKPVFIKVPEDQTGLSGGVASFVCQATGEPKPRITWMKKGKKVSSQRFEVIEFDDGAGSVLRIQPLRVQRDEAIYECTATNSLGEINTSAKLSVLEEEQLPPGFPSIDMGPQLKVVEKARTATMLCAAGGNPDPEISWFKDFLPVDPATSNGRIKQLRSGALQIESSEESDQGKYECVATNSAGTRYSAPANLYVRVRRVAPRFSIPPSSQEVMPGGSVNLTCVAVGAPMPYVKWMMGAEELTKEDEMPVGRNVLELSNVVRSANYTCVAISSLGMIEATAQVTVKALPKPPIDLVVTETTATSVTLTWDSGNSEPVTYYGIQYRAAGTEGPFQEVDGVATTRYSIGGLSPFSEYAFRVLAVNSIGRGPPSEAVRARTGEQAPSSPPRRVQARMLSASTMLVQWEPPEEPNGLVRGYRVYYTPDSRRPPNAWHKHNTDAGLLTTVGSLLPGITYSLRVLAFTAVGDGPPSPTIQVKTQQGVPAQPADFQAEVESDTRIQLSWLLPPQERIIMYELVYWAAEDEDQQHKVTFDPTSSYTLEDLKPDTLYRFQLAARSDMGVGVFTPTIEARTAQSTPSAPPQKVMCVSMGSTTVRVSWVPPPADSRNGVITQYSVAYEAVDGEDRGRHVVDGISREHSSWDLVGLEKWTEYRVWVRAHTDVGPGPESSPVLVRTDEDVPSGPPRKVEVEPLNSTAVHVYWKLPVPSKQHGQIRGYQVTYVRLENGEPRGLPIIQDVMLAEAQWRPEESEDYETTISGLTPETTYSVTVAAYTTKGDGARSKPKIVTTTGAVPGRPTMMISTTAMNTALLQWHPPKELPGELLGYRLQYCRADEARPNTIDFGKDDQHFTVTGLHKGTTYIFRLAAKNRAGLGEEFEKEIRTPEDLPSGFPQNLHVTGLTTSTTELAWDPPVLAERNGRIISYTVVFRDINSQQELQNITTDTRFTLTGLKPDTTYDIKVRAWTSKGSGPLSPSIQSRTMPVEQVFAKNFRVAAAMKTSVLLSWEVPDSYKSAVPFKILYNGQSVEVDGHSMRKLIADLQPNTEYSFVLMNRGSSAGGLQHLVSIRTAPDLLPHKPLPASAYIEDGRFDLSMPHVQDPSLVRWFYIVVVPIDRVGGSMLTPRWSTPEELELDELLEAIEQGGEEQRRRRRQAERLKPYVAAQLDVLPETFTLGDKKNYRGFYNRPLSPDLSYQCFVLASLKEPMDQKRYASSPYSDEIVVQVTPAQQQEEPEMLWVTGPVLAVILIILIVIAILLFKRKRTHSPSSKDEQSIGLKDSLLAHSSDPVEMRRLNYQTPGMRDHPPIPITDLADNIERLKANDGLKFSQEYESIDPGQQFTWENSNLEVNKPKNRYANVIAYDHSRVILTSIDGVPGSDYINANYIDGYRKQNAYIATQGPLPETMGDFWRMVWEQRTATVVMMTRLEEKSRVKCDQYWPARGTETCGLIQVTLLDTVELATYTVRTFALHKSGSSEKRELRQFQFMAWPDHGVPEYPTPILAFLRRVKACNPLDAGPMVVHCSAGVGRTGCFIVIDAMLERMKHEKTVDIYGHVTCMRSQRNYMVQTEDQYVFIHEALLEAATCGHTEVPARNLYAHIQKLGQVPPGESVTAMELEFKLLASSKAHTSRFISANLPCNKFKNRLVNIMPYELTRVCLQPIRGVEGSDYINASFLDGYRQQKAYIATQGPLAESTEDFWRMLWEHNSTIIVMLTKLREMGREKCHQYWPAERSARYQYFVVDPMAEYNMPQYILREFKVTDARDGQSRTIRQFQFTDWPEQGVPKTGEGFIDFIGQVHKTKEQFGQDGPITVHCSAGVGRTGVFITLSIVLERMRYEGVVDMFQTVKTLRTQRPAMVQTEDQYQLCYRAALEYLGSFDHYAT

With Cc1cc(S(=O)(=O)O)c(S(=O)(=O)O)cc1N1N=C(C(=O)O)CC1=O the IC50 [1] was > 100 µM, the inhibition [2] was “inactive” and the IC50 [3] was 14 µM. The IC50 [4] was > 100 µM, the IC50 [5] was > 100 µM and the inhibition [6] was 91%.
